Experimental data: patent US20190010531A1, “CELL CULTURE PROCESS FOR MAKING A GLYCOPROTEIN” (Regeneron Pharmaceuticals, Inc., priority 2017, published 2019)

Test system: CHO cells expressing a trap protein (receptor-Fc fusion protein, VEGF-trap)
Details: 36.6 mg/L putrescine; VEGF-trap from CHO cells

With `NCCCCN` [putrescine, 1,4-Diaminobutane] the “Al N-Glycan relative amount (% area under the curve)” value was 9.0 % area under the curve.
